# Reference: ChEMBL document CHEMBL4613264, “Design, Synthesis, and Biological Evaluation of New Peripheral 5HT2A Antagonists for Nonalcoholic Fatty Liver Disease” (J Med Chem, 2020)
# The source made the active and inactive calls. No cut-off for these calls is given here.
# Experiments:
# [1] = molecular target: T1, 5-hydroxytryptamine receptor 2A (Homo sapiens, UniProt P28223); experiment: Antagonist activity at 5HT2A receptor (unknown origin) expressed in HEK293 cells assessed as inhibition of serotonin hydrochloride-induced calcium flux preincubated for 1 hr followed by serotonin hydrochloride addition by calcium 6 dye based FLIPR assay; type: functional, cell-based
# T1 sequence (P28223 whole entry): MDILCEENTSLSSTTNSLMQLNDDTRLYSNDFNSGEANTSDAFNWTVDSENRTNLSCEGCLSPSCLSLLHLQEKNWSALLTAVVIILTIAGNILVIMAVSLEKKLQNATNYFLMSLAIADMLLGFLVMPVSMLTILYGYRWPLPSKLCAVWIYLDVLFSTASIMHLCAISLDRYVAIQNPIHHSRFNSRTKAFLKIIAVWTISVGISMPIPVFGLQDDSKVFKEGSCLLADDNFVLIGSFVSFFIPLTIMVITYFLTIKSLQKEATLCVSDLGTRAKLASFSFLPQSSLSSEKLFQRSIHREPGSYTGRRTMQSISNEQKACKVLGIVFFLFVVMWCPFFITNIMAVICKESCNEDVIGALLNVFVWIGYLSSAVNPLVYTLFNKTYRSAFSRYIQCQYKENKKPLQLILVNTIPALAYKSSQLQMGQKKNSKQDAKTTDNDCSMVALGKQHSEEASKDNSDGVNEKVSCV
# [2] = Ratio of drug level in brain to plasma of ICR mouse at 5 mg/kg, iv measured after 0.5 hrs by LC-MS/MS analysis; type: ADME, organism-based; conditions: read-out: BPR
# [3] = Plasma concentration in ICR mouse at 5 mg/kg, iv measured after 0.5 hrs by LC-MS/MS analysis; type: ADME, organism-based
# [4] = Permeability of the compound by PAMPA; type: ADME; conditions: read-out: permeability
# [5] = Drug level in ICR mouse brain at 5 mg/kg, iv measured after 0.5 hrs by LC-MS/MS analysis; type: ADME, organism-based; conditions: read-out: Drug uptake
# [6] = test system: Vero; experiment: Cytotoxicity against African green monkey Vero cells; type: cell-based; conditions: Chlorocebus sabaeus
# [7] = AUC (infinity) in Sprague-Dawley rat at 5 mg/kg, iv by LC-MS/MS analysis; type: ADME, organism-based; set-up: dose 5 mg/kg, time infinity, route intravenous; conditions: in vivo
# [8] = molecular target: T2, 5-hydroxytryptamine receptor 2C (Homo sapiens) (UniProt P28335); experiment: Antagonist activity at recombinant human 5HT2C receptor expressed in HEK293 cells assessed as inhibition of serotonin-induced inositol phosphate accumulation at 1 uM measured after 30 mins by HTRF assay relative to control; type: functional, cell-based
# T2 sequence (whole entry): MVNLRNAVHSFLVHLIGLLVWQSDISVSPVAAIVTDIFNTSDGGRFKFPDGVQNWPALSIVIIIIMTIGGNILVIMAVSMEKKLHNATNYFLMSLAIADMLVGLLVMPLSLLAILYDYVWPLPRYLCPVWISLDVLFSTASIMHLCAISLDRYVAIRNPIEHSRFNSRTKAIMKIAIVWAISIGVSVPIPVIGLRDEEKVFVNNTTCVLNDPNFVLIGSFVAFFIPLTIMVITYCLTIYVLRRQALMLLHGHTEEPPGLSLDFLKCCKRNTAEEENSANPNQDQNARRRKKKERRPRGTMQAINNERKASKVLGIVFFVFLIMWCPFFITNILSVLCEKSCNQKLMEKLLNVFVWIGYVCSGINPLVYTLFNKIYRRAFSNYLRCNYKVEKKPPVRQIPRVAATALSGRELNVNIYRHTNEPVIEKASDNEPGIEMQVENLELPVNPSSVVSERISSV
# [9] = test system: Mus musculus; experiment: Protection against 10 week HFD-induced liver disease in C57BL/6J mouse assessed as reduction in body weight gain at 100 mg/kg, ip administered daily for 10 weeks and measured post HFD stimulation; type: functional, organism-based
# [10] = test system: NIH3T3; experiment: Cytotoxicity against mouse NIH/3T3 cells; type: cell-based
# [11] = Volume of distribution at steady state in Sprague-Dawley rat at 5 mg/kg, iv by LC-MS/MS analysis; type: ADME, organism-based; conditions: in vivo, read-out: Vdss
# [12] = test system: CHO-K1; experiment: Cytotoxicity against CHOK1 cells; type: cell-based; conditions: Cricetulus griseus
# [13] = AUCt in Sprague-Dawley rat at 5 mg/kg, iv by LC-MS/MS analysis; type: ADME, organism-based; conditions: in vivo
# [14] = molecular target: T1, 5-hydroxytryptamine receptor 2A; experiment: Antagonist activity at recombinant human full-length 5HT2A receptor expressed in CHOK1 cells assessed as inhibition of serotonin-induced inositol phosphate accumulation at 1 uM measured after 30 mins by TR-FRET assay relative to control; type: functional, cell-based; conditions: CHO-K1
# [15] = test system: Mus musculus; experiment: Protection against 10 week HFD-induced liver disease in C57BL/6J mouse assessed as reduction in crownlike structure appearance in epididymal white adipose tissue at 50 to 100 mg/kg, ip administered daily for 10 weeks and measured post last dose by H and E staining based histological analysis; type: functional, organism-based
# [16] = test system: Mus musculus; experiment: Protection against 10 week HFD-induced liver disease in C57BL/6J mouse assessed as reduction in hepatic triglyceride accumulation at 50 to 100 mg/kg, ip administered daily for 10 weeks and measured post last dose by H and E staining based histological analysis; type: functional, organism-based
# [17] = test system: Mus musculus; experiment: Protection against 10 week HFD-induced liver disease in C57BL/6J mouse assessed as reduction in adipocyte size of inguinal white adipose tissue at 50 to 100 mg/kg, ip administered daily for 10 weeks and measured post last dose by H and E staining based histological analysis; type: functional, organism-based
# [18] = test system: Mus musculus; experiment: Protection against 10 week HFD-induced liver disease in C57BL/6J mouse assessed as reduction in hepatic triglyceride accumulation at 50 to 100 mg/kg, ip administered daily for 10 weeks and measured post last dose by triglyceride reagent based colorimetric analysis; type: functional, organism-based
# [19] = Clearance in Sprague-Dawley rat at 5 mg/kg, iv by LC-MS/MS analysis; type: ADME, organism-based; conditions: in vivo
# [20] = molecular target: T3, 5-hydroxytryptamine receptor 1A (Homo sapiens) (UniProt P08908); experiment: Antagonist activity at human 5HT1A expressed in mouse BA/F3 cells assessed as inhibition of serotonin-induced cAMP accumulation at 1 uM by fluorescence assay relative to control; type: functional, cell-based; conditions: BaF3
# T3 sequence (whole entry): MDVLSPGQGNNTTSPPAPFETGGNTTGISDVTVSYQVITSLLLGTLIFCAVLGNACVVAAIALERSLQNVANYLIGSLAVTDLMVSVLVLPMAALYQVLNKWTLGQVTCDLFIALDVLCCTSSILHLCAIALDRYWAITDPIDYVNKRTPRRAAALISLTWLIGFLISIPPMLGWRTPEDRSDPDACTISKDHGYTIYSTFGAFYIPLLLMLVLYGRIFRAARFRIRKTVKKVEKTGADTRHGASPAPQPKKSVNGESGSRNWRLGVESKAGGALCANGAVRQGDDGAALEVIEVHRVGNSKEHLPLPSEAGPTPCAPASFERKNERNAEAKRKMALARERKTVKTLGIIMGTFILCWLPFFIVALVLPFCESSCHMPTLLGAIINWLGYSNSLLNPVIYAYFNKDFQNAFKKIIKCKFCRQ
# [21] = molecular target: hERG (KCNH2) (Homo sapiens, UniProt Q12809); experiment: Inhibition of human ERG at 10 uM relative to control
# Sequence of hERG (KCNH2) (Q12809 whole entry): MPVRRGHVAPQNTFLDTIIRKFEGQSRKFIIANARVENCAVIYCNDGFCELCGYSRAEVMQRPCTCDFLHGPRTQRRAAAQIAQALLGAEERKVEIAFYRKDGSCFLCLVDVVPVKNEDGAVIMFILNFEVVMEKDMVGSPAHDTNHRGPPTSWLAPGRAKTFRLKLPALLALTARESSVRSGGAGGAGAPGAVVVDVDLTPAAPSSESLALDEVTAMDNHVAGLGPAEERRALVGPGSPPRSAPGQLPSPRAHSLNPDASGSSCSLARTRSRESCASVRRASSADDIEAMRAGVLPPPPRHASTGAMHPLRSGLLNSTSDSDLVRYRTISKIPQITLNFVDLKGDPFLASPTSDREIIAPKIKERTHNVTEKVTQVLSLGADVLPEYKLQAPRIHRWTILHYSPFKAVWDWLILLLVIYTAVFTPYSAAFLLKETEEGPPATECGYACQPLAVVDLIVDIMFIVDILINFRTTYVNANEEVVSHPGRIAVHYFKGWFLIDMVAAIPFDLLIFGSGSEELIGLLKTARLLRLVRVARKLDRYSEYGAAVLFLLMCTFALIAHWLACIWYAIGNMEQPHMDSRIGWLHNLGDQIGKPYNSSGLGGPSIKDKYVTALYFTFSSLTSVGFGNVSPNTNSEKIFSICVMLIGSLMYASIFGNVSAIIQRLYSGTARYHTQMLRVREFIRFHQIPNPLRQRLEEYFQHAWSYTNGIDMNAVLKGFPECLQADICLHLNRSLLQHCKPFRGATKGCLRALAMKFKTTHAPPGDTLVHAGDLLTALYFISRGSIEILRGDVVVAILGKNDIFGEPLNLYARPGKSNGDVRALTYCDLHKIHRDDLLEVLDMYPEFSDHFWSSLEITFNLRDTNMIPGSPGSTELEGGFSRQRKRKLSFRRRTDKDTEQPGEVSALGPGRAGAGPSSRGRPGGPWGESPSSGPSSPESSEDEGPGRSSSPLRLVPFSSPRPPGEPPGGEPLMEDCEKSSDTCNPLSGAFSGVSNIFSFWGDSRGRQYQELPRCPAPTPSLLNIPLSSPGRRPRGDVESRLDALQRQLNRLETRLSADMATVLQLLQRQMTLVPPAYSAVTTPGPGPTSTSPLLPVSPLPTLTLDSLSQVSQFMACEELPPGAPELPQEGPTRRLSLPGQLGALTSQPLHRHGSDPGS
# [22] = Half life in Sprague-Dawley rat at 5 mg/kg, iv by LC-MS/MS analysis; type: ADME, organism-based; conditions: in vivo
# [23] = molecular target: T4, 5-hydroxytryptamine receptor 3A (Homo sapiens) (UniProt P46098); experiment: Antagonist activity at 5HT3 (unknown origin) at 1 uM relative to control
# T4 sequence (whole entry): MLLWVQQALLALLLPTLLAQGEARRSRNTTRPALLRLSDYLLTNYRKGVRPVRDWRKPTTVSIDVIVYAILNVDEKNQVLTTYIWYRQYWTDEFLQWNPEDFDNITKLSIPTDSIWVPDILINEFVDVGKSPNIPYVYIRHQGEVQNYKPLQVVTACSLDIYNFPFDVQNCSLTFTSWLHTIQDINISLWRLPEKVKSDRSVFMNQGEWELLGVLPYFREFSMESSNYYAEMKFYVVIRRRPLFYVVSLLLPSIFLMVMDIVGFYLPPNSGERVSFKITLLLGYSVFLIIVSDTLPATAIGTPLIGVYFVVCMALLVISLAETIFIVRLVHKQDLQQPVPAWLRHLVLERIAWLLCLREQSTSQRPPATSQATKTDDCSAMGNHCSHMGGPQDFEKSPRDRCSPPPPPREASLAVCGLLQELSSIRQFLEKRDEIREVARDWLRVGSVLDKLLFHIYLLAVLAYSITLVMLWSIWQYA
# [24] = molecular target: 5-hydroxytryptamine receptor 2B (Homo sapiens) (UniProt P41595); experiment: Antagonist activity at recombinant human full-length 5HT2B receptor expressed in CHOK1 cells assessed as inhibition of serotonin-induced inositol phosphate accumulation at 1 uM measured after 30 mins by TR-FRET assay relative to control; type: functional, cell-based; conditions: CHO-K1
# Sequence of 5-hydroxytryptamine receptor 2B (Homo sapiens) (P41595 whole entry): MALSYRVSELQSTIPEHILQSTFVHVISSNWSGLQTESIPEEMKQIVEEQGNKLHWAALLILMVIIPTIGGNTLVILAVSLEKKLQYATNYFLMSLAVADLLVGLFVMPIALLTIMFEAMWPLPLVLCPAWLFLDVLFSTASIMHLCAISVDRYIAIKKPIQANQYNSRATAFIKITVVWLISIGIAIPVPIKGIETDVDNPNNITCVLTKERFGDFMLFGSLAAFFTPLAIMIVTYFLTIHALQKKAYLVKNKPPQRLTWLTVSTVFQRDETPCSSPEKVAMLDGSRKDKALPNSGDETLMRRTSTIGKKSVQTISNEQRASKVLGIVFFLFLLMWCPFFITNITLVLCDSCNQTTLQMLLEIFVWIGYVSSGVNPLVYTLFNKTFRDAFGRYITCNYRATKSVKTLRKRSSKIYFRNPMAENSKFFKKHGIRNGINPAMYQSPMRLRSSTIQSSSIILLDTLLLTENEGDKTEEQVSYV
# [25] = molecular target: 5-hydroxytryptamine receptor 7 (Homo sapiens) (UniProt P34969); experiment: Antagonist activity at recombinant human 5HT7 receptor expressed in CHOK1 cells assessed as inhibition of serotonin-induced cAMP accumulation at 1 uM measured after 30 mins by HTRF assay relative to control; type: functional, cell-based; conditions: CHO-K1
# Sequence of 5-hydroxytryptamine receptor 7 (Homo sapiens) (P34969 whole entry): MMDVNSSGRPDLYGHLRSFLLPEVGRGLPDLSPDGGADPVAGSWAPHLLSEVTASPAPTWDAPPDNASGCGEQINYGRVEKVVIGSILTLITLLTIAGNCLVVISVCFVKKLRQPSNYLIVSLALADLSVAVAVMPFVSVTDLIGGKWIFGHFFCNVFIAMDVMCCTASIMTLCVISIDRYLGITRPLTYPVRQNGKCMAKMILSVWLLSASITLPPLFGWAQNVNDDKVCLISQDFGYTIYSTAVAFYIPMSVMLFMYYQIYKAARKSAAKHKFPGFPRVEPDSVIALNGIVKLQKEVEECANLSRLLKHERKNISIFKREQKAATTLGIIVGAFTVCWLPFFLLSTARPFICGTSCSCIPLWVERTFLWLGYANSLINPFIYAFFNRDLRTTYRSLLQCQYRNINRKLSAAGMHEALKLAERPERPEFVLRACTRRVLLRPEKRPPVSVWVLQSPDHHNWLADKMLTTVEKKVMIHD
# [26] = test system: L929; experiment: Cytotoxicity against mouse L929 cells; type: cell-based
# [27] = test system: Mus musculus; experiment: Protection against 10 week HFD-induced liver disease in C57BL/6J mouse assessed as reduction in blood glucose level at 100 mg/kg, ip administered daily for 10 weeks and measured 9 weeks post HFD stimulation by IPGTT; type: functional, organism-based
# [28] = test system: Mus musculus; experiment: Protection against 10 week HFD-induced liver disease in C57BL/6J mouse assessed as increase in lead body mass at 100 mg/kg, ip administered daily for 10 weeks and measured post last dose by NMR analysis; type: functional, organism-based
# [29] = test system: HFL1; experiment: Cytotoxicity against human HFL1 cells; type: cell-based
# [30] = molecular target: 5-hydroxytryptamine receptor 1B (Homo sapiens) (UniProt P28222); experiment: Antagonist activity at recombinant human 5HT1B expressed in human HeLa cells assessed as inhibition of serotonin-induced cAMP accumulation at 1 uM measured after 5 mins by TR-FRET assay relative to control; type: functional, cell-based
# Sequence of 5-hydroxytryptamine receptor 1B (Homo sapiens) (P28222 whole entry): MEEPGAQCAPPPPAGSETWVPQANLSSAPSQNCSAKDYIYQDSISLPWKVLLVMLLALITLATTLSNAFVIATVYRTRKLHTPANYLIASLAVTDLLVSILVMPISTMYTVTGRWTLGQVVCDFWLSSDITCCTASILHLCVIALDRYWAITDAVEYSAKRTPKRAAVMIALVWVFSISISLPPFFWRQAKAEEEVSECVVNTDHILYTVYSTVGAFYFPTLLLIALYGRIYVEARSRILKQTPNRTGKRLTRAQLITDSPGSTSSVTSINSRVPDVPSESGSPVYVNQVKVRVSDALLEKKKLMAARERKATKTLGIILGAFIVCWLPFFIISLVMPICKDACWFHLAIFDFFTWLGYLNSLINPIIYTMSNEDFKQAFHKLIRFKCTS
# [31] = test system: Mus musculus; experiment: Protection against 10 week HFD-induced liver disease in C57BL/6J mouse assessed as reduction in epididymal white adipose tissue fat mass at 50 to 100 mg/kg, ip administered daily for 10 weeks and measured post last dose by H and E staining based histological analysis; type: functional, organism-based
# [32] = test system: Mus musculus; experiment: Protection against 10 week HFD-induced liver disease in C57BL/6J mouse assessed as reduction in body fat accumulation at 100 mg/kg, ip administered daily for 10 weeks and measured post last dose by NMR analysis; type: functional, organism-based
# [33] = in vitro; conditions: rat, liver microsomes
# Description: Stability in rat liver microsomes assessed as parent compound remaining measured after 30 mins
# [34] = test system: Mus musculus; experiment: Protection against 10 week HFD-induced liver disease in C57BL/6J mouse assessed as reduction in inguinal white adipose tissue fat mass at 50 to 100 mg/kg, ip administered daily for 10 weeks and measured post last dose by H and E staining based histological analysis; type: functional, organism-based
# [35] = test system: Mus musculus; experiment: Protection against 10 week HFD-induced liver disease in C57BL/6J mouse assessed as reduction in brown adipose tissue fat mass at 50 to 100 mg/kg, ip administered daily for 10 weeks and measured post last dose by H and E staining based histological analysis; type: functional, organism-based
# [36] = test system: Mus musculus; experiment: Protection against 10 week HFD-induced liver disease in C57BL/6J mouse assessed as reduction in liver weight at 50 to 100 mg/kg, ip administered daily for 10 weeks and measured post last dose; type: functional, organism-based
# [37] = Stability in human liver microsomes assessed as parent compound remaining measured after 30 mins; type: ADME, Microsome; conditions: read-out: Stability
structure (smiles),measurement,setting,value
CN1CCC(N(Cc2ccc(F)cc2)C(=O)NCc2ccc(OCC(O)CN3CCN(c4nsc5ccccc45)CC3)cc2)CC1 (stereo unspecified),IC50,[1],0.00087 µM
CN1CCC(N(Cc2ccc(F)cc2)C(=O)NCc2ccc(OCC(O)CN3CCC(c4noc5cc(F)ccc45)CC3)cc2)CC1 (stereo unspecified),Kp at 0.5 h,[2],1.63
same,concentration at 0.5 h,[3],455 ng/mL
same,Papp,[4],4.79 ×10⁻⁶ cm/s
same,IC50,[1],0.00039 µM
same,concentration at 0.5 h,[5],741 ng/g
CC(C)COc1ccc(CNC(=O)N(Cc2ccc(F)cc2)C2CCN(C(=O)CC[C@H](N)C(=O)O)CC2)cc1,IC50,[6],54.7 µM
same,AUC(0-inf),[7],2030 ng·h/mL
same,inhibition,[8],63.8%
same,Activity,[9],Active
same,IC50,[10],18.2 µM
same,Kp at 0.5 h,[2],0.038
same,Vd,[11],11 L/kg
same,concentration at 0.5 h,[3],416 ng/mL
same,IC50,[12],51 µM
same,AUC(0-t),[13],1910 ng·h/mL
same,inhibition,[14],93%
same,Activity,[15],Active
same,Activity,[16],Active
same,Activity,[17],Active
same,Activity,[18],Active
same,clearance,[19],41 mL/min/kg
same,inhibition,[20],-2.8%
same,IC50,[1],0.00835 µM
same,inhibition at 10 µM,[21],18.7%
same,half-life,[22],16.9 h
same,inhibition,[23],-5%
same,inhibition,[24],7%
same,inhibition,[25],6.3%
same,IC50,[26],64 µM
same,Activity,[27],Active
same,concentration at 0.5 h,[5],15.1 ng/g
same,Activity,[28],Active
same,IC50,[29],55.2 µM
same,inhibition,[30],6%
same,Activity,[31],Active
same,Activity,[32],Active
same,remaining at 0.5 h,[33],84%
same,Activity,[34],Active
same,Activity,[35],Active
same,Activity,[36],Active
same,remaining at 0.5 h,[37],89%
CC(C)COc1ccc(CNC(=O)N(Cc2ccc(F)cc2)C2CCN(C(=O)CCC(=O)O)CC2)cc1,IC50,[1],0.317 µM
O=C1CC2(CCCC2)CC(=O)N1CCCCN1CCN(c2ncccn2)CC1 [BUSPIRONE],remaining at 0.5 h,[33],15%
same,remaining at 0.5 h,[37],4%
CC(C)COc1ccc(CNC(=O)N(Cc2ccc(F)cc2)C2CCN(C(=S)NC(C)C)CC2)cc1,IC50,[1],1.13 µM
